Among the data in patent US8436016B2, “Fused heterocyclic M1 receptor positive allosteric modulators” (priority 2008, dated 2013) are EC50 values, retold here.

Read-outs that look alike come from different tables or passages of the source.

For this test, the target named is T1, acetylcholine muscarinic M1 receptor (Homo sapiens, UniProt P11229).
T1 construct: expressed in transfected cells; host or cells: CHOnfat (CHO cells with an NFAT reporter background) expressing hM1, kept under Geneticin selection
T1 sequence (P11229 1-460): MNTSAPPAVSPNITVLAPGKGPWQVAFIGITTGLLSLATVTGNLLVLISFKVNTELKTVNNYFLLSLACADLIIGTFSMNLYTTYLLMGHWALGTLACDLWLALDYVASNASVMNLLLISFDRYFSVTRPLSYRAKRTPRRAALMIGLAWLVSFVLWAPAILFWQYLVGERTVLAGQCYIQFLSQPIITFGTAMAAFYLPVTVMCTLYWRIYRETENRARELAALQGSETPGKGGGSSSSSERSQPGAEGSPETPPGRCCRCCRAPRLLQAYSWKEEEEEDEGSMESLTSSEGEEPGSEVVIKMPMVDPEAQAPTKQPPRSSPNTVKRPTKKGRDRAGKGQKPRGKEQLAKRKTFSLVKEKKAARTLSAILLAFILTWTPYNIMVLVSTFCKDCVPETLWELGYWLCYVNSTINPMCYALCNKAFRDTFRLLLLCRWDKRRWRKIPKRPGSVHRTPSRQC
The test can be described thus: muscarinic FLIPR assay: potentiation of acetylcholine (EC20)-stimulated intracellular Ca2+ in CHOnfat/hM1 cells. Format: cell-based. The procedure: The assay studies the effect of one or several concentrations of test compounds on basal or acetylcholine-stimulated Ca^2+ levels using FLIPR.
Compounds are prepared and subjected to a preincubation period of 4 min. Thereafter, a single EC20 concentration of acetylcholine is added to each well (3 nM final). The intracellular Ca^2+ level of each sample is measured and compared to an acetylcholine control to determine any modulatory activity.
Cells: CHOnfat/hM1, hM2, hM3 or hM4 cells are plated 24 hr before the assay at a density of 18,000 cells/well (100 μL) in a 384 well plate. CHOnfat/hM1 and CHOnfat/hM3 Growth Medium: 90% DMEM (Hi Glucose); 10% HI FBS; 2 mM L-glutamine; 0.1 mM NEAA; Pen-Strep; and 1 mg/ml Geneticin, are added. For M2Gqi5CHOnfat and M4Gqi5CHOnfat cells, an additional 600 μg/ml hygromycin is added.
Buffers. […] Dye Loading Buffer: Assay Buffer plus 1% Fetal Bovine Serum and Fluo-4AM/Pluronic Acid Mixture. […] 20% Pluronic Acid Solution stock, with a concentration of 0.04% in Buffer, 0.02% in Assay.
65 μL of 2 mM Fluo-4AM are mixed with 130 μL of 20% Pluronic Acid. The resulting solution and 650 μL FBS is added to the assay buffer for a total volume of 65 mL. Positive Controls: 4-Br-A23187: 10 mM in DMSO; final concentration 10 μM. Acetylcholine: 10 mM in water, working stock at both 20 μM and 30 μM in assay buffer, final concentration of 10 μM. This is used to check the maximum stimulation of the CHOK1/hM1 cells. 20 μM (2×) acetylcholine is added in the preincubation part of the assay, and the 30 μM (3×) stock is added in the second part. (EC20)Acetylcholine: 10 mM in water, working stock of 9 nM (3×), and final concentration in assay is 3 nM. This is used after the preincubation with test compounds. Addition of the EC20 Acetylcholine to each well with a test compound will ascertain any modulator activity. 24 wells contain 3 nM Acetylcholine alone as a control.
Determining Activity of Putative Compounds:
Four 96-well plates are combined into a 384-well plate using Mosquito Nanolitre Pipetting System by transferring 1 μl of serial diluted compounds to each well, and 1 mM acetylcholine (100× stock concentration) were added as a control. Using Term, 49 μl assay buffer is added to each well of the 384-well plate right before assay.
In a 96-well Whatman 2 ml Uniplate, 9 nM Acetylcholine (3×) is pipetted into wells corresponding to the screening compounds and into control wells. The 30 μM acetylcholine control (3×) is added into control wells and the 3× agonist plate is transferred into a 384-well plate.
Cells are washed three times with 100 μL of buffer, leaving 30 μL of buffer in each well. Using Multimek, 30 μL of Dye Loading Buffer is added into each well and incubated at 37° C., 5% CO2 for up to one hr.
After 60 min, the cells are washed three times with 100 μL of buffer, leaving 30 μL of buffer in each well. The cell plate, screening plate, and agonist addition plates are placed on the platform in the FLIPR and the door is closed. A signal test to check background fluorescence and basal fluorescence signal is performed. Laser intensity is adjusted if necessary.
4 min of preincubation with the test compounds is provided to determine any agonist activity on the M1 receptor by comparison to the 1 mM acetylcholine control. After preincubation, the EC20 value of acetylcholine (3 nM final) is added to determine any modulator activity.
The inflection point is calculated from the FLIPR values, and is a measure of activity.

[1] abbreviates: CHOnfat/hM1 cells, FLIPR, 4 min preincubation, then EC20 acetylcholine (3 nM final), read-out: IP Value (inflection point).

Regarding `Cn1ncc2cc(Cn3cc(C(=O)O)c(=O)c4c(F)cccc43)ccc21` [Example 1, 5-Fluoro-1-[(1-methyl-1H-indazol-5-yl)methyl]-4-oxo-1,4-dihydroquinoline-3-carboxylic acid], the EC50 was 72 nM.

With `O=C(O)c1cn(Cc2cc3ccccc3s2)c2cccc(F)c2c1=O` [Example 56], under setting [1], the EC50 was determined as 147 nM. On the same count and under the same terms, for `O=C(O)c1cn(Cc2cccc3ccncc23)c2cccc(F)c2c1=O` [Example 73] the value was 1300 nM. With `O=C(O)c1cn(Cc2ccc3ccccc3c2)c2c(F)cccc2c1=O` [Example 4], the EC50 stood at 80 nM. Regarding `O=C(O)c1cn(Cc2ccc3cc(F)ccc3c2)c2cccc(F)c2c1=O` [Example 3, 5-Fluoro-1-[(6-fluoro-2-naphthyl)methyl]-4-oxo-1,4-dihydroquinoline-3-carboxylic acid], the EC50 under setting [1] stood at 261 nM. On the same count and under the same terms, for `O=C(O)c1cn(Cc2ccc3nccnc3c2)c2cccc(F)c2c1=O` [Example 15] the value was 501 nM. For `O=C(O)c1cn(Cc2cc3ccccc3[nH]2)c2cccc(F)c2c1=O` [Example 58], the EC50 was 656 nM. Consider `O=C(O)c1cn(Cc2ccc3[nH]ccc3c2)c2cccc(F)c2c1=O` [Example 33], for which the EC50 worked out at 93 nM. The same measure, in the same setting: the same measure for `O=C1Cc2cc(Cn3cc(C(=O)O)c(=O)c4c(F)cccc43)ccc2N1` [Example 53]: 38 nM; for `O=C(O)c1cn(Cc2ccc3c(c2)OCCO3)c2cccc(F)c2c1=O` [Example 27]: 29 nM. On to `O=C(O)c1cn(Cc2ccc3[nH]cnc3c2)c2cccc(F)c2c1=O` [Example 42], for which the EC50 under setting [1] stood at 229 nM.
